Molecular target: T1, Human Polθ polymerase domain (aa1820-2590) (Homo sapiens, UniProt O75417)
T1 construct: Human Polθ polymerase domain (aa1820-2590) was expressed in E. coli; made in house; host or cells: E. coli
T1 sequence (O75417 1820-2590): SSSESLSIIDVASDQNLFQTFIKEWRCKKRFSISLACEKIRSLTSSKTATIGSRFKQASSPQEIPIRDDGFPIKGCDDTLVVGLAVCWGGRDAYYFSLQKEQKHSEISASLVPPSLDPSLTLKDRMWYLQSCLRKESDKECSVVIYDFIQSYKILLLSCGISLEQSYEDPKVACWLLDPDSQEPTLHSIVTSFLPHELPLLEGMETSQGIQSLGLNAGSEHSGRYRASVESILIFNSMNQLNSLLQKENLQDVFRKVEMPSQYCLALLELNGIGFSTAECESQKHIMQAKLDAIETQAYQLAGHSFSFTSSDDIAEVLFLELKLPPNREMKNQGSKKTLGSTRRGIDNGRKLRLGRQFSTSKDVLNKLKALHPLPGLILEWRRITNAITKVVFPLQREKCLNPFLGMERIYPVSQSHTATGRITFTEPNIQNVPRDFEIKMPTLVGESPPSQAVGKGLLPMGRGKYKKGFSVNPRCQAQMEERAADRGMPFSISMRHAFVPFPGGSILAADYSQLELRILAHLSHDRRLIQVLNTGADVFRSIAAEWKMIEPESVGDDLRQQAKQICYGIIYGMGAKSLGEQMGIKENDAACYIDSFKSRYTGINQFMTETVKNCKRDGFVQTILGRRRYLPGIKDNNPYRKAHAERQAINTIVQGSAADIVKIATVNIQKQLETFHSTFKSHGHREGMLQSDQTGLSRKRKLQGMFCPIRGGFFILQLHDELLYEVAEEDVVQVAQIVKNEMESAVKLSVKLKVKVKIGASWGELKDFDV
Assay: Polθ Polymerase Domain Kinact/KI Assay (PicoGreen)
Type: biochemical
Settings: 0.8 nM Polθ, 100 nM DNA substrate, kobs vs [I] fit for 2-step covalent inhibitor
In short: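 Kinact and KI derive from fitting kobs versus [I], where kobs were fitted from EDTA-stopped PicoGreen time courses (up to 60 min) in Tris pH 7.5 buffer with 1% DMSO, 0.8 nM enzyme, 100 nM DNA and […].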

Row | Kinact/Kl [M⁻¹ s⁻¹] | Structure (SMILES)
1 | 420000 | C=CC(=O)N1CC(N(C)CCCN2C[C@H]3CC(=O)N(c4cc(C(F)(F)F)cc(C)n4)[C@@H]3C(=O)N(C)c3cccc(F)c32)C1 [Example 71, (3aR,11aS)-5-(3-((1-acryloylazetidin-3-yl)(methyl)amino)propyl)-6-fluoro-10-methyl-1-(6-methyl-4-(trifluoromethyl)pyridin-2-yl)-1,3a,4,5,10,11a-hexahydro-2H-benzo[b]pyrrolo[2,3-f][1,4]diazocine-2,11(3H)-dione]
2 | 2.36e+06 | C=CC(=O)N1CC(C)(N2CCN(CCN3C[C@H]4CC(=O)N(c5cc(C(F)(F)F)cc(C)n5)[C@@H]4C(=O)N(C)c4cccc(C)c43)CC2)C1 [Example 72, (3aR,11aS)-5-(2-(4-(1-acryloyl-3-methylazetidin-3-yl)piperazin-1-yl)ethyl)-6,10-dimethyl-1-(6-methyl-4-(trifluoromethyl)pyridin-2-yl)-1,3a,4,5,10,11a-hexahydro-2H-benzo[b]pyrrolo[2,3-f][1,4]diazocine-2,11(3H)-dione]
3 | 5.83e+06 | C=CC(=O)N1CCn2c(nc(CN3C[C@H]4CC(=O)N(c5cc(C(F)(F)F)cc(C)n5)[C@@H]4C(=O)N(C)c4cccc(C)c43)c2C)C1 [Example 74, (3aR,11aS)-5-((7-acryloyl-3-methyl-5,6,7,8-tetrahydroimidazo[1,2-a]pyrazin-2-yl)methyl)-6,10-dimethyl-1-(6-methyl-4-(trifluoromethyl)pyridin-2-yl)-1,3a,4,5,10,11a-hexahydro-2H-benzo[b]pyrrolo[2,3-f][1,4]diazocine-2,11(3H)-dione]
4 | 1.32e+06 | C=CC(=O)N1CC(N2CCN(C(=O)CN3C[C@H]4CC(=O)N(c5cc(C(F)(F)F)cc(C)n5)[C@@H]4C(=O)N(C)c4cccc(Cl)c43)CC2)C1 [Example 75, (3aR,11aS)-5-(2-(4-(1-acryloylazetidin-3-yl)piperazin-1-yl)-2-oxoethyl)-6-chloro-10-methyl-1-(6-methyl-4-(trifluoromethyl)pyridin-2-yl)-1,3a,4,5,10,11a-hexahydro-2H-benzo[b]pyrrolo[2,3-f][1,4]diazocine-2,11(3H)-dione]
5 | 2.55e+06 | C=C(CN(C)C)C(=O)N1CC(OCCCN2C[C@H]3CC(=O)N(c4cc(C(F)(F)F)cc(C)n4)[C@@H]3C(=O)N(C)c3cccc(C)c32)C1 [Example 77, (3aR,11aS)-5-(3-((1-(2-((dimethylamino)methyl)acryloyl)azetidin-3-yl)oxy)propyl)-6,10-dimethyl-1-(6-methyl-4-(trifluoromethyl)pyridin-2-yl)-1,3a,4,5,10,11a-hexahydro-2H-benzo[b]pyrrolo[2,3-f][1,4]diazocine-2,11(3H)-dione]
6 | 2.06e+06 | C=C(COC(C)=O)C(=O)N1CC(OCCCN2C[C@H]3CC(=O)N(c4cc(C(F)(F)F)cc(C)n4)[C@@H]3C(=O)N(C)c3cccc(Cl)c32)C1 [Example 78, 2-(3-(3-((3aR,11aS)-6-chloro-10-methyl-1-(6-methyl-4-(trifluoromethyl)pyridin-2-yl)-2,11-dioxo-1,2,3,3a,4,10,11,11a-octahydro-5H-benzo[b]pyrrolo[2,3-f][1,4]diazocin-5-yl)propoxy)azetidine-1-carbonyl)allyl Acetate]
7 | 1.46e+06 | Cc1cc(C(F)(F)F)cc(N2C(=O)C[C@@H]3CN(CCCOC4CN(C(=O)/C(Cl)=C/CN(C)C)C4)c4c(F)cccc4N(C)C(=O)[C@H]32)n1 [Example 79, (3aR,11aS)-5-(3-((1-((Z)-2-chloro-4-(dimethylamino)but-2-enoyl)azetidin-3-yl)oxy)propyl)-6-fluoro-10-methyl-1-(6-methyl-4-(trifluoromethyl)pyridin-2-yl)-1,3a,4,5,10,11a-hexahydro-2H-benzo[b]pyrrolo[2,3-f][1,4]diazocine-2,11(3H)-dione]
8 | 810000 | C/C=C(\CN(C)C)C(=O)N1CC(OCCCN2C[C@H]3CC(=O)N(c4cc(C(F)(F)F)cc(C)n4)[C@@H]3C(=O)N(C)c3cccc(F)c32)C1 [Example 80, (3aR,11aS)-5-(3-((1-((E)-2-((dimethylamino)methyl)but-2-enoyl)azetidin-3-yl)oxy)propyl)-6-fluoro-10-methyl-1-(6-methyl-4-(trifluoromethyl)pyridin-2-yl)-1,3a,4,5,10,11a-hexahydro-2H-benzo[b]pyrrolo[2,3-f][1,4]diazocine-2,11(3H)-dione]
9 | 2.03e+06 | C=C(CN(C)C)C(=O)N1CC(OCCCN2C[C@H]3CC(=O)N(c4cc(C(F)(F)F)cc(C)n4)[C@@H]3C(=O)N(C)c3ccccc32)C1 [Example 81, (3aR,11aS)-5-(3-((1-(2-((dimethylamino)methyl)acryloyl)azetidin-3-yl)oxy)propyl)-10-methyl-1-(6-methyl-4-(trifluoromethyl)pyridin-2-yl)-1,3a,4,5,10,11a-hexahydro-2H-benzo[b]pyrrolo[2,3-f][1,4]diazocine-2,11(3H)-dione]
10 | 920000 | Cc1cc(C(F)(F)F)cc(N2C(=O)C[C@@H]3CN(CCCOC4CN(C(=O)C5=CCCNC5)C4)c4c(C)cccc4N(C)C(=O)[C@H]32)n1 [Example 82, (3aR,11aS)-6,10-dimethyl-1-(6-methyl-4-(trifluoromethyl)pyridin-2-yl)-5-(3-((1-(1,2,5,6-tetrahydropyridine-3-carbonyl)azetidin-3-yl)oxy)propyl)-1,3a,4,5,10,11a-hexahydro-2H-benzo[b]pyrrolo[2,3-f][1,4]diazocine-2,11(3H)-dione]
11 | 620000 | Cc1cc(C(F)(F)F)cc(N2C(=O)C[C@@H]3CN(CCCCCNC(=O)/C=C/CN(C)C)c4c(C)cccc4N(C)C(=O)[C@H]32)n1 [Example 83, (E)-N-(5-((3aR,11aS)-6,10-dimethyl-1-(6-methyl-4-(trifluoromethyl)pyridin-2-yl)-2,11-dioxo-1,2,3,3a,4,10,11,11a-octahydro-5H-benzo[b]pyrrolo[2,3-f][1,4]diazocin-5-yl)pentyl)-4-(dimethylamino)but-2-enamide]
12 | 3.61e+06 | C=C(CN(C)C)C(=O)NCCCCCN1C[C@H]2CC(=O)N(c3cc(C(F)(F)F)cc(C)n3)[C@@H]2C(=O)N(C)c2cccc(C)c21 [Example 84, N-(5-((3aR,11aS)-6,10-dimethyl-1-(6-methyl-4-(trifluoromethyl)pyridin-2-yl)-2,11-dioxo-1,2,3,3a,4,10,11,11a-octahydro-5H-benzo[b]pyrrolo[2,3-f][1,4]diazocin-5-yl)pentyl)-2-((dimethylamino)methyl)acrylamide]
13 | 1.82e+06 | C=C(CN(C)C)C(=O)NCCOCCN1C[C@H]2CC(=O)N(c3cc(C(F)(F)F)cc(C)n3)[C@@H]2C(=O)N(C)c2cccc(C)c21 [Example 85, N-(2-(2-((3aR,11aS)-6,10-dimethyl-1-(6-methyl-4-(trifluoromethyl)pyridin-2-yl)-2,11-dioxo-1,2,3,3a,4,10,11,11a-octahydro-5H-benzo[b]pyrrolo[2,3-f][1,4]diazocin-5-yl)ethoxy)ethyl)-2-((dimethylamino)methyl)acrylamide]
14 | 3.49e+06 | C=C(CN(C)C)C(=O)N1CCN(C(=O)CCN2C[C@H]3CC(=O)N(c4cc(C(F)(F)F)cc(C)n4)[C@@H]3C(=O)N(C)c3cccc(Cl)c32)CC1 [Example 86, (3aR,11aS)-6-chloro-5-(3-(4-(2-((dimethylamino)methyl)acryloyl)piperazin-1-yl)-3-oxopropyl)-10-methyl-1-(6-methyl-4-(trifluoromethyl)pyridin-2-yl)-1,3a,4,5,10,11a-hexahydro-2H-benzo[b]pyrrolo[2,3-f][1,4]diazocine-2,11(3H)-dione]
15 | 810000 | C=CC(=O)Nc1ccc(CN2C[C@H]3CC(=O)N(c4cc(C(F)(F)F)cc(C)n4)[C@@H]3C(=O)N(C)c3cccc(C)c32)cc1 [Example 87, N-(4-(((3aR,11aS)-6,10-dimethyl-1-(6-methyl-4-(trifluoromethyl)pyridin-2-yl)-2,11-dioxo-1,2,3,3a,4,10,11,11a-octahydro-5H-benzo[b]pyrrolo[2,3-f][1,4]diazocin-5-yl)methyl)phenyl)acrylamide]
16 | 4.75e+06 | Cc1cc(C(F)(F)F)cc(N2C(=O)C[C@@H]3CN(Cc4ccc(NC(=O)C5=CCCNC5)cc4)c4c(C)cccc4N(C)C(=O)[C@H]32)n1 [Example 88, N-(4-(((3aR,11aS)-6,10-dimethyl-1-(6-methyl-4-(trifluoromethyl)pyridin-2-yl)-2,11-dioxo-1,2,3,3a,4,10,11,11a-octahydro-5H-benzo[b]pyrrolo[2,3-f][1,4]diazocin-5-yl)methyl)phenyl)-1,2,5,6-tetrahydropyridine-3-carboxamide]

Reference: patent US20250230165A1, “HETEROCYCLIC COMPOUNDS FOR USE IN THE TREATMENT OF CANCER” (ARTIOS PHARMA LIMITED, priority 2021, published 2025)
